Structures can show the parent of a compound that is named as a salt.
Legend:
[1] = Oral bioavailability of estramustine in dogs (AUC of estramustine after oral dosing); format: in vivo, Beagle dogs; conditions: oral water solution, dose equivalent to 140 mg estramustine phosphate, fasting; for AUC of estramustine, Mean ± S.D.: four Beagle dogs
Experimental: Different formulations were administered orally to groups of four Beagle dogs. The dose was equivalent to 140 mg of estramustine phosphate. The animals were fasting before dosing and given 50 ml 0.01 M hydrochloric acid after the dose. Blood samples were analysed for estramustine by means of gas chromatography. (Andersson, S-B, et al., Acta Pharm.Suec. 19, 1 (1982).
The following formulations were used: […]
1. Water solution of estramustine phosphate disodium salt
2. Water solution of compound No. 6:2
3. Water solution of compound No. 4:2

[2] = Interactions with calcium ions (observation of precipitate in acetate buffer pH=4.5 after adding equimolar calcium ions); format: physicochemical; conditions: for Observation: pH=4.5 buffer, observed for 3 h
Experimental: Solution A: 0.3 mole/l calcium diethanesulfonate. Calcium carbonate ([…], 15 mmole) is dissolved by adding a 1.0 mole/l ethanesulfonic acid solution until a stable pH=5.3 is obtained. The solution is diluted with water to 50 ml.
Solution B: 0.03 mole/l calcium diethanesulfonate. One part of solution A is diluted with 9 parts of water.
Solution C: 0.05 mole/l sodium acetate/acetic acid buffer with pH=4.5. Glacial acetic acid (3.0 g, 0.05 mole) is dissolved in 800 ml of water, titrated with 1 mole/l sodium hydroxide solution to pH=4.5 and diluted to 1 l.
The test compound is dissolved in 50 ml of solution C. A clear solution is obtained in a few minutes. After 5 minutes an equimolar amount of calcium ions are added by adding 1 ml of solution A or B. The mixture is observed for 3 h.

Work on `CNCC(=O)O[C@H]1CC[C@H]2[C@@H]3CCc4cc(OC(=O)N(CCCl)CCCl)ccc4[C@H]3CC[C@]12C` [Compound No. 4:2, 17-Estramustine N-methylaminoacetate, ethanesulfonate] yielded an AUC of estramustine ([1]; Dog No. 8729) of 94.0 ng/mlxhours, an AUC of estramustine ([1]; Dog No. 8731) of 79.8 ng/mlxhours and an AUC of estramustine ([1]; Dog No. 8735) of 2.6 ng/mlxhours. For the same molecule, the AUC of estramustine ([1]; Dog No. 8742) was 153.4 ng/mlxhours and the “AUC of estramustine, Mean ± S.D.” value [1] was 82.6 ± 62.0 ng/mlxhours.

With `C[C@]12CC[C@@H]3c4ccc(OC(=O)N(CCCl)CCCl)cc4CC[C@H]3[C@@H]1CC[C@@H]2OP(=O)(O)O` [Estramustine phosphate disodium salt, 17-estramustine dihydrogen phosphate ester, reference compound] the Observation ([2]; 16 mg, 0.03 mmole compound, solution B, 0.03 mmole calcium ions) was “Becomes unclear”, the “precipitate in the presence of calcium ions (summary)” value ([2]; novel compounds at concentrations 10 times higher than those of estramustine phosphate disodium salt and calcium ions giving immediate undissolved calcium salt) was “immediate formation of an undissolved estramustine phosphate calcium salt” and the AUC of estramustine ([1]; Dog No. 8727) was 147 ng/mlxhours. It also gave an AUC of estramustine ([1]; Dog No. 8729) of 16.4 ng/mlxhours, an AUC of estramustine ([1]; Dog No. 8731) of 34.0 ng/mlxhours and an AUC of estramustine ([1]; Dog No. 8733) of 19.5 ng/mlxhours. The “AUC of estramustine, Mean ± S.D.” value ([1]; listed as Etramustine phosphate disodium salt) was 54.3 ± 62.4 ng/mlxhours.

For `C[C@]12CC[C@@H]3c4ccc(OC(=O)N(CCCl)CCCl)cc4CC[C@H]3[C@@H]1CC[C@@H]2OC(=O)CN` [Compound No. 6:2, 17-estramustine aminoacetate, methanesulfonate], the Observation ([2]; 178 mg, 0.3 mmole compound, solution A, 0.3 mmole calcium ions) was “Remains clear”, the AUC of estramustine ([1]; Dog No. 8727) was 100 ng/mlxhours and the AUC of estramustine ([1]; Dog No. 8729) was 140 ng/mlxhours. The AUC of estramustine ([1]; Dog No. 8731) was 45.8 ng/mlxhours, the AUC of estramustine ([1]; Dog No. 8733) was 184.8 ng/mlxhours and the “AUC of estramustine, Mean ± S.D.” value [1] was 118 ± 59 ng/mlxhours.
